Experimental data: patent US9084778B2, “Topical compositions containing a retinoid of the oil-in-water emulsion type” (GALDERMA RESEARCH & DEVELOPMENT, priority 2012, dated 2015)

What was measured:
[1] = "Single time" cutaneous penetration study ex vivo (Franz cells, 16 h); type: in vitro ADME; conditions: ex vivo human skin, the 2 formulae evaluated
Method: Two types of cutaneous penetration studies were carried out ex vivo on human skin. In these studies compound A corresponds to 3″-tert-butyl-4′-(2-hydroxy-ethoxy)-4″-pyrrolidin-1-yl-[1,1′;3′,1″]-terphenyl-4-carboxylic acid.
“Single Time” Cutaneous Penetration Study:
In this study the Formula is applied for 16 hours to the surface of the skin. After the application COMPOUND A is quantified in the different compartments of the skin: stratum corneum, epidermis, dermis and receiving liquid according to the validated bioanalysis method.
The bioanalysis was conducted by mass spectrometry in tandem by positive electrospray ionisation using a Xevo device (Waters). The limit of quantification for compound A is 1 ng/mL.
The conditions of LC/MS/MS developed enabled up to 0.1% of the doe applied in each of the compartments to be detected (unabsorbed dose, stratum, epidermis, dermis and receiving liquid).
In this type of “single point” study the parameters considered are: • a. The distribution profile in the different compartments (qualitative data) • b. The penetration in the epidermis+dermis compartment (numerical data) FIG. 1

[2] = Maximum solubility in fat phase excipients determined by HPLC; type: physicochemical
Description: In order to obtain an oil in water emulsion containing a compound with the general formula (I) in the fat phase, pre-formulation studies have been conducted to provide evidence of the excipients allowing good solubilisation as well as good stability of the active ingredient.
(1) List of fat phase excipients in which the maximum solubility has been determined by HPLC:
The limit, below which the compounds of general formula (1) are considered non-solubilized, is 0.1% by weight.

[3] = Stability of compound A in its principal solvents; type: physicochemical
Description: (2) Stability of compound A in its principal solvents:
(§1) The limits fixed for high stability are 95%-105% as a percentage relative to TO.

[4] = Stability of compound A in mixtures of excipients (solvent/surfactants) determined by HPLC; type: physicochemical
Description: (3) Stability of compound A in mixtures of excipients (solvent/surfactants) determined by HPLC:
Studies of stability of compound A solubilised in oils (in which it is stable) in the presence of surfactants have been conducted:
as §1

Compound A in the receiving liquid [1]: not detected | Maximum solubility ([2]; in Arlasolve DMI (Dimethyl Isosorbide)): 0.400% | Maximum solubility ([2]; in Benzyl alcohol (Benzyl Alcohol)): 2.388% | Maximum solubility ([2]; in Brij 30 (Laureth-4)): 2.03% | Maximum solubility ([2]; in Capryol 90 (Propylene glycol monocaprylate)): 0.802% | Maximum solubility ([2]; in Crodamol IPM (Isopropyl myristate)): <0.1% | Maximum solubility ([2]; in Hydrolite 5P (Pentylene glycol)): 0.482% | Maximum solubility ([2]; in Phenoxetol (Phenoxyethanol)): 1.957% | Stability results ([3]; COMPOUND A 0.005% in Miglyol 812N (Caprylic/capric triglycerides), 40° C.): Stable/Ok 6 Months | Stability results ([3]; COMPOUND A 0.005% in Sweet almond oil, 40° C.): Stable/Ok 6 Months | Stability results ([3]; COMPOUND A 0.05% in Arlacel 83V Pharma (Sorbitan Sesquioleate), 40° C.): Stable/Ok 6 Months | Stability results ([3]; COMPOUND A 0.05% in Arlamol E (PPG-15 stearyl ether), 40° C.): Stable/Ok 6 Months | Stability results ([3]; COMPOUND A 0.05% in Arlasolve DMI (Dimethyl Isosorbide)): Unstable | Stability results ([3]; COMPOUND A 0.05% in Benzyl Alcohol): Unstable | Stability results ([3]; COMPOUND A 0.05% in Brij 30 (Laureth-4)): Unstable | Stability results ([3]; COMPOUND A 0.05% in Capryol 90 (Propylene glycol monocaprylate), 40° C.): Stable/Ok 6 Months | Stability results ([3]; COMPOUND A 0.05% in Crodamol DA (Diisopropyl Adipate), 40° C.): Stable/Ok 6 Months | Stability results ([3]; COMPOUND A 0.05% in Dipropylene Glycol Care (Dipropylene glycol)): Unstable | Stability results ([3]; COMPOUND A 0.05% in Eutanol G (Octyldodecanol)): Unstable | Stability results ([3]; COMPOUND A 0.05% in Labrafil M1944CS (Apricot Kernel Oil PEG-6 Ester), 40° C.): Stable/Ok 6 Months | Stability results ([3]; COMPOUND A 0.05% in Lauroglycol FCC (Propylene glycol laurate), 40° C.): Stable/Ok 6 Months | Stability results ([3]; COMPOUND A 0.05% in Marcol 152 (Parrafinum liquidum)): Unstable | Stability results ([3]; COMPOUND A 0.05% in Myritol PC (Propylene glycol dicaprylate/dicaprate)): Unstable | Stability results ([3]; COMPOUND A 0.05% in Phenoxetol (Phenoxyethanol), 40° C.): Stable/Ok 6 Months | Stability results ([4]; COMPOUND A 0.05% in Arlacel 165/Arlamol E, 40° C.): Stable/Ok 3 Months | Stability results ([4]; COMPOUND A 0.05% in Arlacel 165/Lauroglycol FCC): Unstable | Stability results ([4]; COMPOUND A 0.05% in Brij 721/Arlamol E, 40° C.): Stable/Ok 3 Months | Stability results ([4]; COMPOUND A 0.05% in Brij 721/Lauroglycol FCC, 40° C.): Stable/Ok 3 Months | Stability results ([4]; COMPOUND A 0.05% in Cremophor EL/Labrafil M1944CS): Unstable | Stability results ([4]; COMPOUND A 0.05% in Cremophor EL/Lauroglycol FCC): Unstable | Stability results ([4]; COMPOUND A 0.05% in Eumulgin B2/Arlamol E, 40° C.): Stable/Ok 3 Months | Stability results ([4]; COMPOUND A 0.05% in GlucateSS-Glucamate SSE-20/Arlamol E): Unstable | Stability results ([4]; COMPOUND A 0.05% in GlucateSS-Glucamate SSE-20/Lauroglycol FCC, 40° C.): Stable/Ok 3 Months | Stability results ([4]; COMPOUND A 0.05% in Simulsol M45/Crodamol DA): Unstable | Stability results ([4]; COMPOUND A 0.05% in Tween 80/Arlamol E): Unstable | Stability results ([4]; COMPOUND A 0.2% in Cremophor EL/Labrafil M1944CS): Unstable | Stability results ([4]; COMPOUND A 0.2% in Cremophor RH40/Crodamol DA): Unstable | Stability results ([4]; COMPOUND A 0.2% in Simulsol M45/Crodamol DA): Unstable | Stability results ([4]; COMPOUND A 0.2% in Tween 80/Hexylene glycol): Unstable | Stability results ([4]; COMPOUND A 0.2% in Tween 80/Lauroglycol FCC): Unstable
Structure (SMILES): CC(C)(C)c1cc(-c2cc(-c3ccc(C(=O)O)cc3)ccc2OCCO)ccc1N1CCCC1 [Compound A, 3″-tert-butyl-4′-(2-hydroxy-ethoxy)-4″-pyrrolidin-1-yl-[1,1′;3′,1″]-terphenyl-4-carboxylic acid]
